{
  "source": "patent US20240108602A1",
  "about": "“TREATMENT OF MENTAL DISORDERS” (GH Research Ireland Limited, priority 2022, published 2024)",
  "key": {"human hepatocytes [1]": {"system": "human hepatocytes", "assay": "Metabolite identification after incubation of 5-MeO-DMT with human hepatocytes", "conditions": "5-MeO-DMT free base 10 μM, up to 120 minutes", "description": "For incubations with cryopreserved hepatocytes, the 2 mM stock solution was diluted with Leibovitz L-15 medium to a concentration of 20 μM or 2 μM. An aliquot (250 μL) of the 20 μM and 2 μM test substance formulations was added to each hepatocyte incubation sample (250 μL), as appropriate, so that the final test substance concentration in the incubations was 10 μM or 1 μM, respectively, and incubations contained less than 1% (v/v) solvent.\nIncubations were performed at ca. 37° C. in a shaking water bath (total incubation volume 0.5 mL). For 1 μM, incubations were terminated after 0, 5, 10, 20, 30, 60 and 120 minutes, by the addition of ice-cold acetonitrile (0.5 mL).\nThe samples were vortex mixed and centrifuged at ca 13,000 rpm for 10 minutes at room temperature. Following centrifugation, the protein-free supernatants were removed for analysis.\nBlank control incubations were carried out with Leibovitz L-15 medium in place of the test substance. No cells control samples were performed with Leibovitz L-15 medium in place of hepatocytes. Aliquots of the blank control samples were taken at 120 minutes, while no cells control samples were taken at 0, 30 and 120 for 1 μM incubations and at 0 and 120 minutes for 10 μM incubations.\nAll 1 μM incubations were performed in duplicate, while all 10 μM incubations were performed in singlet. All samples were stored at −80° C. (nominal) prior to analysis.\nPrior to sample analysis a 100 μL aliquot of each sample was evaporated to near dryness under a steady stream of nitrogen at room temperature, and subsequently reconstituted in 50 μL of mobile phase A (0.1% formic acid in water). Each sample (0, 30 and 120-minute, 10 μM) was analysed using accurate mass LC-MS to determine relative levels of parent compound at each time-point, and determine the profile of metabolites formed. Appropriate blank and control samples were also analysed. The 10 and 60-minute, 10 μM incubation samples were not analysed and were stored at −80° C. (nominal).\nData were interrogated for the presence of metabolites by comparison of retention times with the test substance reference standard and based on the accurate masses of potential metabolites using screening software (UNIFI version 1.9.4), and user defined search parameters. To confirm a suspected metabolite, the measured accurate mass of the peak detected in the sample used for structural elucidation had to be within 5 ppm of the theoretical mass in order to confirm the molecular formula."}, "human hepatocytes [2]": {"system": "human hepatocytes", "assay": "Metabolic stability in Hμrel human hepatocyte co-culture model"}, "[3]": {"assay": "5-MeO-DMT, 5-MIAA and bufotenine in urine, serum and breastmilk of a lactating PPD patient, LC-MS/MS", "description": "The second patients was lactating, and, per the clinical trial protocol, breastmilk samples were collected pre-dosing and at multiple timepoints after administration of the last dose. […] Similar analyses were carried out on patient serum and urine samples."}, "human plasma protein": {"system": "human plasma protein", "assay": "Plasma binding of 5-MIAA (unbound fraction)", "type": "in vitro ADME", "description": "Binding to human plasma protein was determined. Reported are the unbound fraction (fu) for three replicates as well as the mean unbound fraction, the standard deviation and the mean % recovery (Table 8)."}, "[4]": {"conditions": "1.0 hrs after last dose (6 mg then 12 mg 5-MeO-DMT)"}},
  "note": "“Also recorded” adds a separate entry of the source.",
  "data": [
    {"molecule": "COc1ccc2[nH]cc(CC[N+](C)(C)[O-])c2c1", "note": "[5-MeO-DMT-N-oxide]", "values": [
      {"measurement": "Relative Proportion of compound after incubation of 5-MeO-DMT", "setting": "human hepatocytes [1]", "result": 1, "unit": "%"}
    ]},
    {"molecule": "COc1ccc2[nH]cc(CCO)c2c1", "note": "[5-methoxytryptophol, 5-Methoxyindole-3-ethanol]", "values": [
      {"measurement": "relative LC/MS peak area", "setting": "human hepatocytes [2]; 1 μM Stromal cells, 0 h", "result": 100, "unit": "%"},
      {"measurement": "relative LC/MS peak area", "setting": "human hepatocytes [2]; 1 μM Stromal cells, 4 h", "result": 97, "unit": "%"},
      {"measurement": "relative LC/MS peak area", "setting": "human hepatocytes [2]; 1 μM Stromal cells, 8 h", "result": 107, "unit": "%"},
      {"measurement": "relative LC/MS peak area", "setting": "human hepatocytes [2]; 1 μM Stromal cells, 24 h", "result": 94, "unit": "%"},
      {"measurement": "relative LC/MS peak area", "setting": "human hepatocytes [2]; 1 μM Stromal cells, 48 h", "result": 102, "unit": "%"},
      {"measurement": "relative LC/MS peak area", "setting": "human hepatocytes [2]; 1 μM Stromal cells, 72 h", "result": 104, "unit": "%"},
      {"measurement": "relative LC/MS peak area", "setting": "human hepatocytes [2]; 10 μM Stromal cells, 0 h", "result": 100, "unit": "%"},
      {"measurement": "relative LC/MS peak area", "setting": "human hepatocytes [2]; 10 μM Stromal cells, 4 h", "result": 99, "unit": "%"},
      {"measurement": "relative LC/MS peak area", "setting": "human hepatocytes [2]; 10 μM Stromal cells, 8 h", "result": 105, "unit": "%"},
      {"measurement": "relative LC/MS peak area", "setting": "human hepatocytes [2]; 10 μM Stromal cells, 24 h", "result": 86, "unit": "%"},
      {"measurement": "relative LC/MS peak area", "setting": "human hepatocytes [2]; 10 μM Stromal cells, 48 h", "result": 98, "unit": "%"},
      {"measurement": "relative LC/MS peak area", "setting": "human hepatocytes [2]; 10 μM Stromal cells, 72 h", "result": 104, "unit": "%"},
      {"measurement": "metabolic turnover", "setting": "human hepatocytes [2]; human hepatocytes", "result": "high metabolic turnover"},
      {"measurement": "half-life", "setting": "human hepatocytes [2]; human hepatocytes, 1 μM", "result": 2.37, "unit": "h"},
      {"measurement": "in vitro intrinsic clearance", "setting": "human hepatocytes [2]; human hepatocytes, 1 μM", "result": 16.2, "unit": "μl/min/million cells"},
      {"measurement": "disappearance with stromal cell controls", "setting": "human hepatocytes [2]; stromal cell controls", "result": "no disappearance"},
      {"measurement": "Relative Proportion of compound after incubation of 5-MeO-DMT", "setting": "human hepatocytes [1]", "result": 25, "unit": "%"}
    ]},
    {"molecule": "CN(C)CCc1c[nH]c2ccc(O)cc12", "note": "[Bufotenine]", "values": [
      {"measurement": "Relative Proportion of compound after incubation of 5-MeO-DMT", "setting": "human hepatocytes [1]", "result": 5, "unit": "%"},
      {"measurement": "Breastmilk concentration", "setting": "[3]; [4]", "result": "BLQ (BLQ: Below limit of quantification. The lower limit of quantification is 25 pg/ml for both 5-MeO-DMT and 5-MIAA in both serum and breastmilk; it is 25 pg/ml in urine for 5-MeO-DMT and 250 pg/ml for 5-MIAA in urine.)"},
      {"measurement": "Serum concentration", "setting": "[3]; [4]", "result": "BLQ (BLQ: Below limit of quantification. The lower limit of quantification is 25 pg/ml for both 5-MeO-DMT and 5-MIAA in both serum and breastmilk; it is 25 pg/ml in urine for 5-MeO-DMT and 250 pg/ml for 5-MIAA in urine.)"},
      {"measurement": "Breastmilk concentration", "setting": "[3]; 2.5 hrs after last dose", "result": "BLQ (BLQ: Below limit of quantification. The lower limit of quantification is 25 pg/ml for both 5-MeO-DMT and 5-MIAA in both serum and breastmilk; it is 25 pg/ml in urine for 5-MeO-DMT and 250 pg/ml for 5-MIAA in urine.)"},
      {"measurement": "Serum concentration", "setting": "[3]; 2.5 hrs after last dose", "result": "BLQ (BLQ: Below limit of quantification. The lower limit of quantification is 25 pg/ml for both 5-MeO-DMT and 5-MIAA in both serum and breastmilk; it is 25 pg/ml in urine for 5-MeO-DMT and 250 pg/ml for 5-MIAA in urine.)"},
      {"measurement": "Urine concentration", "setting": "[3]; 2.5 hrs after last dose", "result": 32.3, "unit": "pg/mL"},
      {"measurement": "Breastmilk concentration", "setting": "[3]; 8.5 hrs after last dose", "result": "BLQ (BLQ: Below limit of quantification. The lower limit of quantification is 25 pg/ml for both 5-MeO-DMT and 5-MIAA in both serum and breastmilk; it is 25 pg/ml in urine for 5-MeO-DMT and 250 pg/ml for 5-MIAA in urine.)"},
      {"measurement": "Urine concentration", "setting": "[3]; 8.5 hrs after last dose", "result": "BLQ (BLQ: Below limit of quantification. The lower limit of quantification is 25 pg/ml for both 5-MeO-DMT and 5-MIAA in both serum and breastmilk; it is 25 pg/ml in urine for 5-MeO-DMT and 250 pg/ml for 5-MIAA in urine.)"},
      {"measurement": "Breastmilk concentration", "setting": "[3]; 24.0 hrs after last dose", "result": "BLQ (BLQ: Below limit of quantification. The lower limit of quantification is 25 pg/ml for both 5-MeO-DMT and 5-MIAA in both serum and breastmilk; it is 25 pg/ml in urine for 5-MeO-DMT and 250 pg/ml for 5-MIAA in urine.)"},
      {"measurement": "Serum concentration", "setting": "[3]; 24.0 hrs after last dose", "result": "BLQ (BLQ: Below limit of quantification. The lower limit of quantification is 25 pg/ml for both 5-MeO-DMT and 5-MIAA in both serum and breastmilk; it is 25 pg/ml in urine for 5-MeO-DMT and 250 pg/ml for 5-MIAA in urine.)"},
      {"measurement": "Urine concentration", "setting": "[3]; 24.0 hrs after last dose", "result": "BLQ (BLQ: Below limit of quantification. The lower limit of quantification is 25 pg/ml for both 5-MeO-DMT and 5-MIAA in both serum and breastmilk; it is 25 pg/ml in urine for 5-MeO-DMT and 250 pg/ml for 5-MIAA in urine.)"},
      {"measurement": "Breastmilk concentration", "setting": "[3]; 120.0 hrs after last dose", "result": "BLQ (BLQ: Below limit of quantification. The lower limit of quantification is 25 pg/ml for both 5-MeO-DMT and 5-MIAA in both serum and breastmilk; it is 25 pg/ml in urine for 5-MeO-DMT and 250 pg/ml for 5-MIAA in urine.)"},
      {"measurement": "Serum concentration", "setting": "[3]; 120.0 hrs after last dose", "result": "BLQ (BLQ: Below limit of quantification. The lower limit of quantification is 25 pg/ml for both 5-MeO-DMT and 5-MIAA in both serum and breastmilk; it is 25 pg/ml in urine for 5-MeO-DMT and 250 pg/ml for 5-MIAA in urine.)"},
      {"measurement": "Urine concentration", "setting": "[3]; 120.0 hrs after last dose", "result": "BLQ (BLQ: Below limit of quantification. The lower limit of quantification is 25 pg/ml for both 5-MeO-DMT and 5-MIAA in both serum and breastmilk; it is 25 pg/ml in urine for 5-MeO-DMT and 250 pg/ml for 5-MIAA in urine.)"},
      {"measurement": "detection in serum and breastmilk", "setting": "[3]; any time point", "result": "absence of bufotenine; also recorded: not detected"},
      {"measurement": "Breastmilk concentration", "setting": "[3]; −24.0 hrs (pre-dosing)", "result": "BLQ (BLQ: Below limit of quantification. The lower limit of quantification is 25 pg/ml for both 5-MeO-DMT and 5-MIAA in both serum and breastmilk; it is 25 pg/ml in urine for 5-MeO-DMT and 250 pg/ml for 5-MIAA in urine.)"},
      {"measurement": "Serum concentration", "setting": "[3]; −24.0 hrs (pre-dosing)", "result": "BLQ (BLQ: Below limit of quantification. The lower limit of quantification is 25 pg/ml for both 5-MeO-DMT and 5-MIAA in both serum and breastmilk; it is 25 pg/ml in urine for 5-MeO-DMT and 250 pg/ml for 5-MIAA in urine.)"},
      {"measurement": "Urine concentration", "setting": "[3]; −24.0 hrs (pre-dosing)", "result": "BLQ (BLQ: Below limit of quantification. The lower limit of quantification is 25 pg/ml for both 5-MeO-DMT and 5-MIAA in both serum and breastmilk; it is 25 pg/ml in urine for 5-MeO-DMT and 250 pg/ml for 5-MIAA in urine.)"}
    ]},
    {"molecule": "CC(=O)CC(c1ccccc1)c1c(O)c2ccccc2oc1=O", "note": "(centres unmarked) [Warfarin, reference compound]", "values": [
      {"measurement": "Mean % Recovery", "setting": "human plasma protein", "result": 78.1, "unit": "%"},
      {"measurement": "Mean fu", "setting": "human plasma protein", "result": 0.0377},
      {"measurement": "unbound fraction (fu), Replicate 1", "setting": "human plasma protein", "result": 0.0418},
      {"measurement": "unbound fraction (fu), Replicate 2", "setting": "human plasma protein", "result": 0.0356},
      {"measurement": "unbound fraction (fu), Replicate 3", "setting": "human plasma protein", "result": 0.0358}
    ]}
  ]
}
